{"source": "patent US20240252668A1", "about": "“ANTIBODY DRUG CONJUGATES AND METHODS FOR MAKING THEREOF” (Novartis AG, priority 2021, published 2024)", "key": {"[1]": {"system": "92.1 uveal melanoma cell line (heterozygous GNAQ Q209L)", "experiment": "Cell proliferation assay (resazurin cell viability), 92.1 cell line", "format": "cell-based", "excerpt": "(§1) Cell Proliferation Assays with Chromodepsins (compounds (A1) and 2-15): Cell line descriptions: 92.1—uveal melanoma cell line, derived from primary tumor, harboring heterozygous GNAQ Q209L mutation. Purchased from Sigma Aldrich. MP41 (CRL-3297) -uveal melanoma cell line, derived from primary tumor, harboring heterozygous GNA11 Q209L mutation. Purchased from ATCC. A375—skin melanoma cell line, harboring homozygous BRAF V600E mutation. Origin: Cancer Cell Line Encyclopedia (CCLE). SK-MEL-30—skin melanoma cell line, harboring heterozygous NRAS Q61K mutation. Origin: CCLE.\n(§2) Cells were cultured in 96-well plates in a total volume of 100 μL at 37° C., 5% CO2 and 95% relative humidity. All cell lines were cultured in RPMI Medium (RPMI 1640 w/o L-glutamine, Bioconcept ref. 1-41F01-I) except A375, DMEM medium (DMEM high glucose (4.5 g/L), Bioconcept, ref. 1-26F01-I), and supplemented with 10% FCS (Bioconcept, ref. 2-01F30-I). Two to three thousand cells were seeded in 96-well plates per well the night before they were treated with compounds (concentration range: from 260 nM to 0.036 nM with ⅓ dilution steps; for 7 the concentration range was increased from 10000 nM to 1.52 nM with ⅓ dilution steps). Cell viability was measured by addition of 10 ul of resazurin per well after 96 hours of treatment. Results were analyzed and plotted using GraphPad Prism 9.0.1."}, "[2]": {"system": "A375 skin melanoma cell line (homozygous BRAF V600E)", "experiment": "Cell proliferation assay (resazurin cell viability), A375 cell line", "format": "cell-based", "excerpt": "as §1, §2"}, "[3]": {"system": "92.1 and MP41 cell lines (GNAQ/GNA11 mutant uveal melanoma)", "experiment": "Cell proliferation assays, potency ranking over both uveal melanoma lines", "format": "cell-based", "conditions": "92.1 and MP41 cell lines", "excerpt": "The selective antiproliferative profile of the chromodepsins against GNAQ/GNA11 mutant cell lines is confirmed by the lack of activity against the A375 and SK MEL 30 cell lines that are independent from GNAQ/GNA11 signaling. The potency ranking using the 92.1 and MP41 cell lines is in good agreement with the previously SAR studies. […] These findings are in line with a recent report from Voss et al., highlighting the importance of the “lipophilic anchors” of compound (A1) at the residues varied in compounds 2 and 3, in context of binding kinetics and prolonged residence time on the target proteins. The retained potency of compound 4 indicates a promising exit vector for potential synthetic or biosynthetic modifications of the scaffold. […] The linearized depsipeptides compounds 5-7 lack any antiproliferative activity. In this experimental setup, the cellular permeability of the compounds was a crucial factor contributing to the observed antiproliferative potency. Therefore, all compounds were characterized in a low efflux MCDK assay and determined their exposed polar surface areas (EPSA) in order to assess their passive cellular permeabilities. All macrocyclic chromodepsins that feature the N acyl Hle side chain show similar results concerning their % fraction absorbed (% FA; average ˜60% FA+20%) and EPSA values.\nas §1, §2"}, "[4]": {"system": "SK-MEL-30 skin melanoma cell line (heterozygous NRAS Q61K)", "experiment": "Cell proliferation assay (resazurin cell viability), SK-MEL-30 cell line", "format": "cell-based", "excerpt": "as §1, §2"}, "[5]": {"system": "MP41 uveal melanoma cell line (heterozygous GNA11 Q209L)", "experiment": "Cell proliferation assay (resazurin cell viability), MP41 cell line", "format": "cell-based", "excerpt": "as §1, §2"}, "[6]": {"experiment": "EPSA determination by supercritical fluid chromatography", "format": "physicochemical", "conditions": "modified EPSA method, SFC", "protocol": "[…] by supercritical fluid chromatography: Compounds (A1) and 2-15 were tested by supercritical fluid chromatography (SFC) to determine their ESAPSA values. Samples were analyzed using a Chirex 3014 column ([…], 3×100 mm column, 100 Å pore size; Phenomenex. The starting conditions were 5% methanol containing 20 mM ammonium formate and 95% scCO2. The gradient was increased linearly to 60% methanol containing 20 mM ammonium formate in 4.5 min."}, "MDCK-LE monolayers": {"system": "MDCK-LE monolayers", "experiment": "Cell-based transwell assay with MDCK-low efflux monolayers (passive permeability)", "format": "in vitro ADME", "conditions": "MDCK-LE monolayers", "protocol": "Cell-based transwell assays with MDCK-low efflux monolayers: Compounds (A1) and 2-15 were tested in MDCK cell sub-clones with low effluxt ransporter activity (MDCK-LE) in order to determine their passive permeability. The incubations were performed at a contract research organization as described previously."}, "[7]": {"conditions": "92.1 (GNAQ Q209L), 96 hours of treatment, read-out: GI50 by cell line, 92.1"}, "[8]": {"conditions": "92.1 cell line, average of Rep. 1 and 2, read-out: GI50 92.1 Average"}, "[9]": {"conditions": "92.1 cell line, replicate 1, read-out: GI50 92.1 Rep. 1"}, "[10]": {"conditions": "92.1 cell line, replicate 2, read-out: GI50 92.1 Rep. 2"}, "[11]": {"conditions": "A375 (GNAQ/11 wild type), 96 hours of treatment, read-out: GI50 by cell line, A375"}, "[12]": {"conditions": "A375 cell line, average of Rep. 1 and 2, read-out: GI50 A375 Average"}, "[13]": {"conditions": "A375 cell line, replicate 1, read-out: GI50 A375 Rep. 1"}, "[14]": {"conditions": "A375 cell line, replicate 2, read-out: GI50 A375 Rep. 2"}, "[15]": {"conditions": "SK-MEL-30 (GNAQ/11 wild type), 96 hours of treatment, read-out: GI50 by cell line, SK-MEL-30"}, "[16]": {"conditions": "SK-MEL-30 cell line, average of Rep. 1 and 2, read-out: GI50 SK-MEL-30 Average"}, "[17]": {"conditions": "SK-MEL-30 cell line, replicate 1, read-out: GI50 SK-MEL-30 Rep. 1"}, "[18]": {"conditions": "SK-MEL-30 cell line, replicate 2, read-out: GI50 SK-MEL-30 Rep. 2"}, "[19]": {"conditions": "MP41 (GNA11 Q209L), 96 hours of treatment, read-out: GI50 by cell line, MP41"}, "[20]": {"conditions": "MP41 cell line, average of Rep. 1 and 2, read-out: GI50 MP41 Average"}, "[21]": {"conditions": "MP41 cell line, replicate 1, read-out: GI50 MP41 Rep. 1"}, "[22]": {"conditions": "MP41 cell line, replicate 2, read-out: GI50 MP41 Rep. 2"}}, "note": "Read-outs that look alike come from different tables or passages of the source. Starred links: 1 amine or outer side, 2 acyl side, 3 side chain; linkers in the order of their positions; H or OH if unused. Positions of bridges follow the written chain, without caps; N, C: chain ends. Non-standard residues stand in square brackets, D forms with d. Residues, ends and D or L forms follow the SMILES beside them. *: point of attachment. Leu(3R-O(AcLeu(3R-OH))) = CC(=O)N[C@H](C(=O)O[C@H](C(C)C)[C@H](N)C(=O)O)[C@H](O)C(C)C; Leu(3R-OH,Nα-propionyl) = CCC(=O)N[C@H](C(=O)*)[C@H](O)C(C)C; X1 = CC(C)[C@@H](O[*:3])[C@H](N[*:1])C(=O)[*:2]; NMeT = CN[C@H](C(=O)O)[C@@H](C)O; dPhLac = O=C(O)[C@H](O)Cc1ccccc1; NMeA = CN[C@@H](C)C(=O)O; NMeDha = C=C(NC)C(=O)O; Propionyl = CCC(=O)*", "data": [{"molecule": "C=C1C(=O)N[C@@H](C)C(=O)N(C)[C@@H](C)C(=O)N[C@@H]([C@H](OC(=O)[C@@H](NC(=O)CC)[C@H](O)C(C)C)C(C)C)C(=O)N(C)[C@@H]([C@@H](C)OC)C(=O)O[C@H](C(C)C)[C@H](NC(=O)CC)C(=O)O[C@H](Cc2ccccc2)C(=O)N1C", "note": "[Compound 9] (Propionyl-[X1][dPhLac][NMeDha]A[NMeA][X1](Leu(3R-OH,Nα-propionyl))[NMeT](Me); ester 1-C)", "values": [{"measurement": "GI50", "setting": "[1]; [7]", "value": 1.4, "unit": "nM"}, {"measurement": "GI50", "setting": "[1]; [8]", "value": 1.4, "unit": "nM"}, {"measurement": "GI50", "setting": "[1]; [9]", "value": 1.2, "unit": "nM"}, {"measurement": "GI50", "setting": "[1]; [10]", "value": 1.69, "unit": "nM"}, {"measurement": "GI50", "setting": "[2]; [11]", "value": "> 260", "unit": "nM"}, {"measurement": "GI50", "setting": "[2]; [12]", "value": "> 260", "unit": "nM"}, {"measurement": "GI50", "setting": "[2]; [13]", "value": "> 260", "unit": "nM"}, {"measurement": "GI50", "setting": "[2]; [14]", "value": "> 260", "unit": "nM"}, {"measurement": "loss of potency compared to compound (A1) (growth inhibition)", "setting": "[3]", "value": "two to three"}, {"measurement": "GI50", "setting": "[4]; [15]", "value": "> 260", "unit": "nM"}, {"measurement": "GI50", "setting": "[4]; [16]", "value": "> 260", "unit": "nM"}, {"measurement": "GI50", "setting": "[4]; [17]", "value": "> 260", "unit": "nM"}, {"measurement": "GI50", "setting": "[4]; [18]", "value": "> 260", "unit": "nM"}, {"measurement": "GI50", "setting": "[5]; [19]", "value": 0.7, "unit": "nM"}, {"measurement": "GI50", "setting": "[5]; [20]", "value": 0.7, "unit": "nM"}, {"measurement": "GI50", "setting": "[5]; [21]", "value": 0.6, "unit": "nM"}, {"measurement": "GI50", "setting": "[5]; [22]", "value": 0.78, "unit": "nM"}]}, {"molecule": "C=C1C(=O)N[C@@H](C)C(=O)N(C)[C@@H](C)C(=O)N[C@@H]([C@H](OC(=O)[C@@H](NC(C)=O)[C@H](O)C(C)C)C(C)C)C(=O)N(C)[C@@H]([C@@H](C)OC)C(=O)O[C@H](C)[C@H](NC(C)=O)C(=O)O[C@H](Cc2ccccc2)C(=O)N1C", "note": "[Compound 13] (Ac-T[dPhLac][NMeDha]A[NMeA][Leu(3R-O(AcLeu(3R-OH)))][NMeT](Me); ester 1-C)", "values": [{"measurement": "GI50", "setting": "[1]; [7]", "value": 15.7, "unit": "nM"}, {"measurement": "GI50", "setting": "[1]; [8]", "value": 15.7, "unit": "nM"}, {"measurement": "GI50", "setting": "[1]; [9]", "value": 10.1, "unit": "nM"}, {"measurement": "GI50", "setting": "[1]; [10]", "value": 21.4, "unit": "nM"}, {"measurement": "GI50", "setting": "[2]; [11]", "value": "> 260", "unit": "nM"}, {"measurement": "GI50", "setting": "[2]; [12]", "value": "> 260", "unit": "nM"}, {"measurement": "GI50", "setting": "[2]; [13]", "value": "> 260", "unit": "nM"}, {"measurement": "GI50", "setting": "[2]; [14]", "value": "> 260", "unit": "nM"}, {"measurement": "EPSA", "setting": "[6]", "value": 95, "unit": "A^2"}, {"measurement": "GI50", "setting": "[4]; [15]", "value": "> 260", "unit": "nM"}, {"measurement": "GI50", "setting": "[4]; [16]", "value": "> 260", "unit": "nM"}, {"measurement": "GI50", "setting": "[4]; [17]", "value": "> 260", "unit": "nM"}, {"measurement": "GI50", "setting": "[4]; [18]", "value": "> 260", "unit": "nM"}, {"measurement": "% Fraction absorbed", "setting": "MDCK-LE monolayers", "value": 46.5, "unit": "%"}, {"measurement": "% Recovery", "setting": "MDCK-LE monolayers", "value": 85, "unit": "%"}, {"measurement": "Papp A − B", "setting": "MDCK-LE monolayers", "value": 2.69, "unit": "×10⁻⁶ cm/s"}, {"measurement": "GI50", "setting": "[5]; [19]", "value": 6, "unit": "nM"}, {"measurement": "GI50", "setting": "[5]; [20]", "value": 6, "unit": "nM"}, {"measurement": "GI50", "setting": "[5]; [21]", "value": 3.6, "unit": "nM"}, {"measurement": "GI50", "setting": "[5]; [22]", "value": 8.31, "unit": "nM"}]}]}
